Reference: PubChem BioAssay AID1919001 (Molecular Pharmacology Branch, DTP, NCI, 2023)

Test system: 699152-130-R-J1-PDC complex spheroid growth
Assay: Anticancer human tumor 699152-130-R-J1-PDC patient-derived pancreatic carcinoma cell line growth inhibition [AhR]
Conditions: for IC50: curve of first compound; for viability, T/C: stronger effect = lower value
From the text: Multicellular complex tumor spheroid response to aryl hydrocarbon receptor antagonists in combination with a variety of drugs and investigational agents in selected tumor cell lines
The current study was undertaken to assess response to aryl hydrocarbon receptor antagonists in combination with standard-of-care drugs and investigational agents in solid tumor complex spheroid models. Complex spheroids include a stromal component modeled by human endothelial cells (HUVEC) and fibroblasts modeled by human mesenchymal stem cells (MSCs). The concentration ranges selected for each drug and investigational agent were based upon clinically achievable concentrations if the clinical Cmax of the agent was known.
Compounds. The drugs and investigational agents: BAY 2416964 (NSC825713), GNF351 (NSC835774), CH-223191 (NSC835775), CPI-455 (NSC825282), aza-TdCyd (NSC777586), decitabine (NSC127716), belinostat (NSC758774), entinostat (NSC756642), pevonedistat (NSC761192), tazemetostat (NSC777109), talazoparib (NSC765396), olaparib (NSC753686), selinexor (NSC780203), nedisertib (M3814, NSC802822), bortezomib (NSC756655), venetoclax (NSC766270), doxorubicin (NSC123127), elimusertib (BAY189344, NSC800525), ceralasertib (AZD6738, NSC777638), TAK-243 (NSC785004), alisertib (NSC759677), etoposide (NSC141540), topotecan (NSC609699), eribulin (NSC707389), gemcitabine (NSC613327), carboplatin (NSC241240), cisplatin (NSC119875), and SN-38 (NSC673596) were obtained from the National Cancer Institute (NCI) Developmental Therapeutics Program Chemical Repository (32). The FDA-approved anticancer drug set is available from the Developmental Therapeutics Program at https://dtp.cancer.gov/organization/dscb/obtaining/available plates.htm. […] The stock solutions were prepared in dimethyl sulfoxide (DMSO, Sigma-Aldrich, St. Louis, MO, cat. D2650), except for the platinum compounds which were prepared in saline (Quality Biological, Gaithersburg, MD, cat. 114-055-101), at 800-fold the tested concentration and stored at -70 degrees C prior to their use. All drugs and investigational agents were tested over a range starting from a high concentration at or near the clinical Cmax and decreasing in half-log increments. If the clinical Cmax for an agent had not been determined, the highest concentration tested was 10 microM (Table 1).
Cell Culture. All cells were maintained in an incubator at 37 degrees C and 5% CO2 with 95% humidity. The PDC lines were cultured according to standard operating procedures established by the NCI PDMR (https://pdmr.cancer.gov). Briefly, all PDCs were thawed and cultured in Matrigel-coated flasks prepared with a working solution of 1X Ham's F-12 nutrient mix, without supplementation (Invitrogen, Waltham, MA, cat. 11765054), 100 U/mL penicillin-streptomycin (Invitrogen, cat. 15140122), and 2.5% Matrigel (Corning Inc., Corning, NY, cat. 354248) for the first three passages. All PDCs were cultured in complete DMEM/F-12 media containing advanced DMEM/F-12 (Invitrogen, cat. 12634028), 4.9% defined fetal bovine serum, heat inactivated (HyClone Laboratories Inc., Logan, UT, cat. SH30070.03HI), 389 ng/mL hydrocortisone (Sigma-Aldrich, cat. H4001), 9.7 ng/mL human EGF recombinant protein (Invitrogen, cat. PHG0313), 23.4 microg/mL adenine (Sigma-Aldrich, cat. A2786), 97.3 U/mL penicillin-streptomycin (Invitrogen, cat. 15140122), 1.9 mM L-glutamine (Invitrogen, cat. 25030081), and 9.7 microM Y-27632 dihydrochloride (Tocris Bioscience, Bristol, United Kingdom, cat. 1254). The PDCs were cultured in complete DMEM/F12 media without 10 microM Y-27632 dihydrochloride for at least two passages prior to the screen. The established cell lines NCI-H1341 and […] were cultured in DMEM/F-12, HEPES (Invitrogen, cat. 11330032), 5% defined fetal bovine serum (HyClone Laboratories Inc., cat. SH30070.03), ITS premix universal culture supplement [insulin (5 microg/mL), transferrin (5 microg/mL), and selenious acid (5 ng/mL)] […]

[1] = second compound 0.1 µM, first compound 0.00316 µM
[2] = second compound 0.1 µM, first compound 0.01 µM
[3] = second compound 0.1 µM, first compound 0.0316 µM
[4] = second compound 0.1 µM, first compound 0.1 µM
[5] = second compound 0.316 µM, first compound 0.00316 µM
[6] = second compound 0.316 µM, first compound 0.01 µM
[7] = second compound 0.316 µM, first compound 0.0316 µM
[8] = second compound 0.316 µM, first compound 0.1 µM
[9] = second compound 1 µM, first compound 0.00316 µM
[10] = second compound 1 µM, first compound 0.01 µM
[11] = second compound 1 µM, first compound 0.0316 µM
[12] = second compound 1 µM, first compound 0.1 µM
[13] = second compound 3.16 µM, first compound 0.00316 µM
[14] = second compound 3.16 µM, first compound 0.01 µM
[15] = second compound 3.16 µM, first compound 0.0316 µM
[16] = second compound 3.16 µM, first compound 0.1 µM
[17] = second compound 10 µM, first compound 0.00316 µM
[18] = second compound 10 µM, first compound 0.01 µM
[19] = second compound 10 µM, first compound 0.0316 µM
[20] = second compound 10 µM, first compound 0.1 µM
[21] = second compound 0.1 µM, first compound 0.316 µM
[22] = second compound 0.1 µM, first compound 1 µM
[23] = second compound 0.1 µM, first compound 3.16 µM
[24] = second compound 0.1 µM, first compound 10 µM
[25] = second compound 0.316 µM, first compound 0.316 µM
[26] = second compound 0.316 µM, first compound 1 µM
[27] = second compound 0.316 µM, first compound 3.16 µM
[28] = second compound 0.316 µM, first compound 10 µM
[29] = second compound 1 µM, first compound 0.316 µM
[30] = second compound 1 µM, first compound 1 µM
[31] = second compound 1 µM, first compound 3.16 µM
[32] = second compound 1 µM, first compound 10 µM
[33] = second compound 3.16 µM, first compound 0.316 µM
[34] = second compound 3.16 µM, first compound 1 µM
[35] = second compound 3.16 µM, first compound 3.16 µM
[36] = second compound 3.16 µM, first compound 10 µM
[37] = second compound 10 µM, first compound 0.316 µM
[38] = second compound 10 µM, first compound 1 µM
[39] = second compound 10 µM, first compound 3.16 µM
[40] = second compound 10 µM, first compound 10 µM
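Note: compound exposure lasted 7 days after spheroids had grown for 3 days.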

## CC[C@@]1(O)C(=O)OCc2c1cc1n(c2=O)Cc2cc3c(CN(C)C)c(O)ccc3nc2-1 + CC(CO)NC(=O)c1cc(-c2ccc(Cl)cc2)nn(-c2cnn(C)c2)c1=O
Second compound 0.1 µM
  IC50: > 100 nM
Second compound 0.316 µM
  IC50: > 100 nM
Second compound 1 µM
  IC50: > 100 nM
Second compound 3.16 µM
  IC50: > 100 nM
Second compound 10 µM
  IC50: > 100 nM
Second compound 0.1 µM, first compound 0.000316 µM
  viability, T/C: 101%
Second compound 0.1 µM, first compound 0.001 µM
  viability, T/C: 102%
[1]
  viability, T/C: 112%
[2]
  viability, T/C: 98.6%
[3]
  viability, T/C: 86.7%
[4]
  viability, T/C: 64.7%
Second compound 0.316 µM, first compound 0.000316 µM
  viability, T/C: 94.1%
Second compound 0.316 µM, first compound 0.001 µM
  viability, T/C: 107%
[5]
  viability, T/C: 93%
[6]
  viability, T/C: 83.5%
[7]
  viability, T/C: 76.3%
[8]
  viability, T/C: 60.3%
Second compound 1 µM, first compound 0.000316 µM
  viability, T/C: 96.8%
Second compound 1 µM, first compound 0.001 µM
  viability, T/C: 108%
[9]
  viability, T/C: 92.5%
[10]
  viability, T/C: 79.4%
[11]
  viability, T/C: 83.6%
[12]
  viability, T/C: 62.5%
Second compound 3.16 µM, first compound 0.000316 µM
  viability, T/C: 89.4%
Second compound 3.16 µM, first compound 0.001 µM
  viability, T/C: 102%
[13]
  viability, T/C: 93.7%
[14]
  viability, T/C: 84%
[15]
  viability, T/C: 71.8%
[16]
  viability, T/C: 60.7%
Second compound 10 µM, first compound 0.000316 µM
  viability, T/C: 102%
Second compound 10 µM, first compound 0.001 µM
  viability, T/C: 103%
[17]
  viability, T/C: 86.3%
[18]
  viability, T/C: 80.7%
[19]
  viability, T/C: 72.3%
[20]
  viability, T/C: 57%

## COc1cc(C2c3cc4c(cc3C(OC3OC5COC(C)OC5C(O)C3O)C3COC(=O)C23)OCO4)cc(OC)c1O (stereo not given) + CC(CO)NC(=O)c1cc(-c2ccc(Cl)cc2)nn(-c2cnn(C)c2)c1=O
Second compound 0.1 µM
  IC50: 9980 nM
Second compound 0.316 µM
  IC50: 8520 nM
Second compound 1 µM
  IC50: > 10000 nM
Second compound 3.16 µM
  IC50: 6670 nM
Second compound 10 µM
  IC50: 7750 nM
[3]
  viability, T/C: 101%
[4]
  viability, T/C: 98.3%
[21]
  viability, T/C: 87.8%
[22]
  viability, T/C: 69.4%
[23]
  viability, T/C: 61.9%
[24]
  viability, T/C: 48.6%
[7]
  viability, T/C: 93.7%
[8]
  viability, T/C: 93.7%
[25]
  viability, T/C: 74%
[26]
  viability, T/C: 61.2%
[27]
  viability, T/C: 54.8%
[28]
  viability, T/C: 47.5%
[11]
  viability, T/C: 95.1%
[12]
  viability, T/C: 92.3%
[29]
  viability, T/C: 82.2%
[30]
  viability, T/C: 73.3%
[31]
  viability, T/C: 53.2%
[32]
  viability, T/C: 53.9%
[15]
  viability, T/C: 82.4%
[16]
  viability, T/C: 86%
[33]
  viability, T/C: 69.5%
[34]
  viability, T/C: 65.5%
[35]
  viability, T/C: 59.1%
[36]
  viability, T/C: 45.5%
[19]
  viability, T/C: 77.6%
[20]
  viability, T/C: 82.9%
[37]
  viability, T/C: 79.7%
[38]
  viability, T/C: 57%
[39]
  viability, T/C: 57.1%
[40]
  viability, T/C: 43.3%

## COc1cccc2c1C(=O)c1c(O)c3c(c(O)c1C2=O)CC(O)(C(=O)CO)CC3OC1CC(N)C(O)C(C)O1 (stereo not given) + CC(CO)NC(=O)c1cc(-c2ccc(Cl)cc2)nn(-c2cnn(C)c2)c1=O
Second compound 0.1 µM
  IC50: 453 nM
Second compound 0.316 µM
  IC50: 378 nM
Second compound 1 µM
  IC50: 462 nM
Second compound 3.16 µM
  IC50: 370 nM
Second compound 10 µM
  IC50: 325 nM
[3]
  viability, T/C: 71.2%
[4]
  viability, T/C: 86.7%
[21]
  viability, T/C: 56.8%
[22]
  viability, T/C: 29.1%
[23]
  viability, T/C: 1.94%
[24]
  viability, T/C: 11.6%
[7]
  viability, T/C: 83.2%
[8]
  viability, T/C: 74.2%
[25]
  viability, T/C: 56%
[26]
  viability, T/C: 21.6%
[27]
  viability, T/C: 2.1%
[28]
  viability, T/C: 11.6%
[11]
  viability, T/C: 70.4%
[12]
  viability, T/C: 72.7%
[29]
  viability, T/C: 64.1%
[30]
  viability, T/C: 20.7%
[31]
  viability, T/C: 2.66%
[32]
  viability, T/C: 12.9%
[15]
  viability, T/C: 68.1%
[16]
  viability, T/C: 69.9%
[33]
  viability, T/C: 56.2%
[34]
  viability, T/C: 9.03%
[35]
  viability, T/C: 8.71%
[36]
  viability, T/C: 15.1%
[19]
  viability, T/C: 73.4%
[20]
  viability, T/C: 69.3%
[37]
  viability, T/C: 51.1%
[38]
  viability, T/C: 2.91%
[39]
  viability, T/C: 5.62%
[40]
  viability, T/C: 12.8%

## Nc1ncn(C2CC(O)C(CO)O2)c(=O)n1 (stereo not given) + CC(CO)NC(=O)c1cc(-c2ccc(Cl)cc2)nn(-c2cnn(C)c2)c1=O
Second compound 0.1 µM
  IC50: > 1000 nM
Second compound 0.316 µM
  IC50: > 1000 nM
Second compound 1 µM
  IC50: > 1000 nM
Second compound 3.16 µM
  IC50: > 1000 nM
Second compound 10 µM
  IC50: > 1000 nM
[1]
  viability, T/C: 90.2%
[2]
  viability, T/C: 100%
[3]
  viability, T/C: 97%
[4]
  viability, T/C: 102%
[21]
  viability, T/C: 96.9%
[22]
  viability, T/C: 93.3%
[5]
  viability, T/C: 89.5%
[6]
  viability, T/C: 100%
[7]
  viability, T/C: 86.7%
[8]
  viability, T/C: 87.2%
[25]
  viability, T/C: 87.8%
[26]
  viability, T/C: 72.2%
[9]
  viability, T/C: 112%
[10]
  viability, T/C: 103%
[11]
  viability, T/C: 107%
[12]
  viability, T/C: 87.7%
[29]
  viability, T/C: 77.7%
[30]
  viability, T/C: 82.3%
[13]
  viability, T/C: 75.4%
[14]
  viability, T/C: 87.6%
[15]
  viability, T/C: 82.2%
[16]
  viability, T/C: 82.1%
[33]
  viability, T/C: 81%
[34]
  viability, T/C: 70%
[17]
  viability, T/C: 85.8%
[18]
  viability, T/C: 85.3%
[19]
  viability, T/C: 79.9%
[20]
  viability, T/C: 70%
[37]
  viability, T/C: 66.6%
[38]
  viability, T/C: 77.1%
